According to patent US12195706B2, “Formation of arrays of planar intestinal crypts possessing a stem/proliferative cell compartment and differentiated cell zone” (THE UNIVERSITY OF NORTH CAROLINA AT CHAPEL HILL, priority 2018, dated 2025):

Key:
[1] = test system: mouse intestinal epithelial cells; assay: Effect of short chain fatty acids on proliferation and differentiation on planar crypt arrays; type: cell-based; settings: day 3-4 (DM/EM); for ALP activity relative to the control / normalized area of EdU+ cells compared to control without short chain fatty acid: 24 mM acetate, 6 mM propionate or 1 mM butyrate in DM luminal medium; for ALP activity relative to the control: ALP+ area normalized to Hoechst 33342 area; for normalized area of EdU+ cells compared to control without short chain fatty acid: EdU+ area normalized to Hoechst 33342 area
Experimental: EM was replaced with fresh EM every 2 days. The cells were sub-cultured every 3-5 days by degrading collagen with collagenase and dissociating the cells with 0.5 mM EDTA into clumps of cells. […] When placing cells onto the surface of the microdevice, the cell suspension was diluted 1 to 2 in EM and overlaid onto the microdevice surface. The cells were cultured for 2 days with EM placed into the luminal and basal reservoirs of the Transwell cassette. On day 2, the luminal and basal media were changed as described in Table 3, below, and the cells incubated for a day. On day 3, the luminal and basal media were replaced with fresh media (identical to that from day 2 replacement) and the cells incubated for another day. In some experiments, the medium in the luminal compartment was replaced differentiation medium (DM, see Table 2) which is similar to EM but lacking in key growth factors required to support intestinal stem cells.
Cells in the S phase of the cell cycle were incubated with a pulse of 5-ethynyl-2′-deoxyuridine (EdU) pulse following the manufacturers' protocols (Click-iT EdU Alexa Fluor 647 Imaging kit, C10340, Thermo Fisher Scientific, Waltham, Massachusetts, United States of America). EdU is a nucleotide analog incorporated into DNA as it is replicated in S phase. In brief, EdU (10 μM) was added to the luminal and basal media and the cells were incubated for 3 h at 37° C. The cells then were washed with PBS and fixed with 4% paraformaldehyde in PBS for 15 min and permeabilized with 0.5% Triton-X for 20 min at 25° C. EdU incorporated into cellular DNA was visualized by reaction with Alexa 647 via click chemistry following the manufacturer's protocol (Click-iT EdU Alexa Fluor 647 Imaging kit, C10340, Thermo Fisher Scientific, Waltham, Massachusetts, United States of America).
Cell monolayers were assayed for alkaline phosphatase (ALP) activity on day 4 of culture by incubation with ALP substrate mixture (Vector Red AP substrate kit, SK-5100, Vector Laboratories Inc., Burlingame, California, United States of America) in Tris buffer (pH 8.4) for 30 min at 37° C. Then cells were washed with PBS, fixed and permeabilized as described above. To label cell DNA, Hoechst 33342 (2 μg/mL, B2261, Sigma Aldrich, St. Louis, Missouri, United States of America) was incubated with cells (1 h, 25° C.).
The […] ® insert (Corning, Inc., Corning, New York, United States of America) with cell layer from the microdevice was placed into a 12-well plate under PBS and imaged using a FLUOVIEW® FV3000® confocal microscope (Olympus Corporation, Tokyo, Japan) confocal microscope (10×, objective, numerical aperture of 0.4). Alexa 647, Vector-Red-ALP, and Hoechst 33342 were excited with a 640, 561, and 405 nm laser, respectively and the fluorescence emission was collected at 650-750 nm, 570-590 nm, and 430-470 nm, respectively. The images were analyzed with the Fiji software package. […] For all experiments, the numbers of sample sizes were estimated using a statistical power analysis based on the data from Wang et al. (Cellular and Molecular Gastroenterology and Hepatology, 2017, 4, 165-182) measuring EdU+ and ALP activities under varying conditions (α=0.05, β=0.85) using G*Power. […] A one-way ANOVA analysis was used for all statistical analyses of data obtained from the fluorescence microscopy images.

[2] = test system: intestinal tumor cell lines; settings: cited from earlier work

Question: What does the source list for `CC(=O)O` [acetate]?
Answer: ALP activity relative to the control [1]: significantly decreased; normalized area of EdU+ cells compared to control without short chain fatty acid [1]: significantly increased

Question: For `CCCC(=O)O` [butyrate], which “decrease of the number of Hoechst 33342+ cells per crypt” value ([1]; 1 mM butyrate in DM luminal medium, vs control crypts, p<0.001) is on record?
Answer: Its value is “about 17%”.

Question: Which results are given for `CCC(=O)O` [propionate]?
Answer: ALP activity relative to the control [1]: significantly increased; normalized area of EdU+ cells compared to control without short chain fatty acid [1]: significantly decreased; proliferation in intestinal tumor cell lines [2]: suppress proliferation
